Patent US11040981B2, “Pyrrolotriazine compounds and methods of inhibiting TAM kinases” (Syros Pharmaceuticals, Inc., priority 2017, dated 2021)

Columns and labels:
FLT3 = target: T1, FLT3 (Homo sapiens, UniProt P36888); experiment: TR-FRET kinase activity assay, FLT3; format: biochemical; details: ATP at Km, 60 minutes
T1 sequence (P36888 27-993): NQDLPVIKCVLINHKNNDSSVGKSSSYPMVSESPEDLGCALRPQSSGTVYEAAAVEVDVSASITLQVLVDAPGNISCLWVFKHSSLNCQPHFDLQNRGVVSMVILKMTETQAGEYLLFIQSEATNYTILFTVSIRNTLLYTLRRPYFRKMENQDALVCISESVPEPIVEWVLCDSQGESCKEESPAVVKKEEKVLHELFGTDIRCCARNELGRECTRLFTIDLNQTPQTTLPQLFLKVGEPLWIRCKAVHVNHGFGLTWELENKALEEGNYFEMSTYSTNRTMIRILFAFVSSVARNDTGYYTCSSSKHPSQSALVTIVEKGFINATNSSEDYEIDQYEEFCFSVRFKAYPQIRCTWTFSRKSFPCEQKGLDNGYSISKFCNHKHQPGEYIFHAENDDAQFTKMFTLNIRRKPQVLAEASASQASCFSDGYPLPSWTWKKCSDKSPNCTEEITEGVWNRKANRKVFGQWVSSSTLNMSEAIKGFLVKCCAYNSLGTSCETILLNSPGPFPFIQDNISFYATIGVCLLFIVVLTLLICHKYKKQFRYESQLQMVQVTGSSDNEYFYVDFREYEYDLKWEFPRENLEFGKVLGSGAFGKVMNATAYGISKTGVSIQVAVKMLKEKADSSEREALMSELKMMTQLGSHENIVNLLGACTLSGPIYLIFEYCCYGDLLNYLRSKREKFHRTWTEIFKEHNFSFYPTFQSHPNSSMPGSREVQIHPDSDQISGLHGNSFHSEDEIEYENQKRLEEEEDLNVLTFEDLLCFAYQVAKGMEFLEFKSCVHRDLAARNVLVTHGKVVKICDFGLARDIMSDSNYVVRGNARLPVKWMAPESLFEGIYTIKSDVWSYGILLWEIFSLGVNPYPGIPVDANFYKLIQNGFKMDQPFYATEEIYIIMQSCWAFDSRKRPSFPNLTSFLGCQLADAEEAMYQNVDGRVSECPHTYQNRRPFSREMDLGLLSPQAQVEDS
Method: (§1) IC50 values for compound inhibition of AXL, FLT3, MERTK and TYRO3 activity were determined by using a TR-FRET activity assay. A polypeptide substrate with a fluorescent label is phosphorylated on a tyrosine by each enzyme, where the now phosphorylated product is bound by a Europium-labeled antibody specific to that phosphorylation site. The proximity between the antibody and the substrate gives a signal known as TR-FRET. As the enzyme is inhibited by compound, less phosphorylated peptide product is made causing a decrease in overall signal.
(§2) Activity assays were performed in a 384-well, small volume, black microplates in an active enzyme volume of 10 μL and final developed volume of 20 μL. Final assay conditions are 50 mM HEPES pH 7.5, 10 mM MgCl2, 1 mM EGTA, 0.01% Brij 35 and 1 mM DTT all at RT. Enzyme, substrate labeled peptide and compound are mixed, and then the reaction is initiated with the addition of ATP at Km concentration for each enzyme. The reaction is allowed to run 60 minutes and then quenched with a 12.5 mM EDTA (ethylenediamine tetraacetic acid) solution. The plate is then developed with the addition of Europium labeled antibody for a final volume of 20 μL and is then incubated for 30 minutes in darkness. Plates are read in a Pherastar plate reader. Data is analyzed in GraphPad PRISM.
(§3) The results of these assays are shown in Table 1, below, wherein “No.” designates compound number (FIG. 1); “A” represents a value of ≤100 nM; “B” a value of >100 nM and ≤1 μM; “C” a value of >1 μM and ≤10 μM; “D” a value of >10 μM; “ND” is not determined. The ratio of Mer to FLT3 is calculated as follows: FLT3 IC50/Mer IC50. “+” represents a ratio of >2.0 and <10; “++” represents a ratio of between 10 and 100; and “+++” represents a ratio of >100.

TYRO3 = target: T2, TYRO3 (Homo sapiens, UniProt Q06418); experiment: TR-FRET kinase activity assay, TYRO3; format: biochemical; details: ATP at Km, 60 minutes
T2 sequence (Q06418 41-890): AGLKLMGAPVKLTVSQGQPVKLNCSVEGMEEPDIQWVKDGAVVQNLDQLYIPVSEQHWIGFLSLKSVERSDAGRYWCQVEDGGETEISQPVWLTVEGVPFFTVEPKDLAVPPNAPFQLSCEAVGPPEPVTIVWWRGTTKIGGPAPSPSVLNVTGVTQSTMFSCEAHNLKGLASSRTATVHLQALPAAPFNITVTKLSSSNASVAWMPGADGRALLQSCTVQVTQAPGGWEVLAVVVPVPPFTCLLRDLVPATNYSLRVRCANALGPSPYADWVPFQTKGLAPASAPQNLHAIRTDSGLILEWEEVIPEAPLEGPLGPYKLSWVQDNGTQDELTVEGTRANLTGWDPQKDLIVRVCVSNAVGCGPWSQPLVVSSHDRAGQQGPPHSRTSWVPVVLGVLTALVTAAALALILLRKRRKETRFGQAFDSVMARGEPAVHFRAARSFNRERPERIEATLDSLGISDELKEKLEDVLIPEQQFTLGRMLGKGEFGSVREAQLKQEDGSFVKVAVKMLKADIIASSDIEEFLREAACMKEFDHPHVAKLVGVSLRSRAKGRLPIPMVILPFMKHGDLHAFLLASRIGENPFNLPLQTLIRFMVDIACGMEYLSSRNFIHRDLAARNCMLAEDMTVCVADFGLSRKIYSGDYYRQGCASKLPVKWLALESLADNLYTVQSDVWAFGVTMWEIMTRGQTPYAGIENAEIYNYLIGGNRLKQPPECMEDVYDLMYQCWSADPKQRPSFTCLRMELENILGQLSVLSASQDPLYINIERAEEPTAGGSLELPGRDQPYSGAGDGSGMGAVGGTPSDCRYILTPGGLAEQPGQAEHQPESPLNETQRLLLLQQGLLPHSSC
Method: as §1, §2, §3

Row | SMILES | IC50 (FLT3) [nM] | IC50 (TYRO3) [nM]
1 | COC[C@H](C)Nc1ncc2c(-c3cccc(CN4CC[C@@H](F)C4)c3)cc([C@H]3CC[C@H](O)CC3)n2n1 [Compound 224] | 100 to 1000 | ≤ 100
2 | COCC(C)Nc1ncc2c(-c3cccc(CN4CCC(F)C4)c3)cc(C3CCC(O)CC3)n2n1 (stereo not drawn) [Compound 225] | 100 to 1000 | ≤ 100
3 | COC[C@H](C)Nc1ncc2c(-c3ccc(C(=O)N4CCN(C)CC4)nc3)cc([C@H]3CC[C@H](O)CC3)n2n1 [Compound 226] | 100 to 1000 | ≤ 100
4 | COC[C@H](C)Nc1ncc2c(-c3ccc(C(=O)N4CCOCC4)nc3)cc([C@H]3CC[C@H](O)CC3)n2n1 [Compound 227] | 1000 to 10000 | ≤ 100
5 | COC[C@H](C)Nc1ncc2c(-c3ccc(C(=O)NC(C)C)nc3)cc([C@H]3CC[C@H](O)CC3)n2n1 [Compound 228, 5-(7-((1r,4S)-4-hydroxycyclohexyl)-2-(((S)-1-methoxypropan-2-yl)amino)pyrrolo[2,1-f][1,2,4]triazin-5-yl)-N-isopropylpicolinamide] | 1000 to 10000 | ≤ 100
6 | COC[C@H](C)Nc1ncc2c(-c3ccc(CN4CCOCC4)nc3)cc([C@H]3CC[C@H](O)CC3)n2n1 [Compound 230] | 100 to 1000 | ≤ 100
7 | COC[C@H](C)Nc1ncc2c(-c3cncc(C)c3)cc([C@H]3CC[C@H](O)CC3)n2n1 [Compound 231] | 1000 to 10000 | ≤ 100
8 | COC[C@H](C)Nc1ncc2c(-c3cncc(C(=O)N4CCCC4)c3)cc([C@H]3CC[C@H](O)CC3)n2n1 [Compound 232] | 1000 to 10000 | ≤ 100
9 | COC[C@H](C)Nc1ncc2c(-c3cncc(C(=O)N4CCOCC4)c3)cc([C@H]3CC[C@H](O)CC3)n2n1 [Compound 233] | 1000 to 10000 | ≤ 100
10 | COC[C@H](C)Nc1ncc2c(-c3cncc(C(=O)N4CCN(C)CC4)c3)cc([C@H]3CC[C@H](O)CC3)n2n1 [Compound 234] | 1000 to 10000 | ≤ 100
11 | COC[C@H](C)Nc1ncc2c(-c3cnn(CC(=O)NC(C)C)c3)cc([C@H]3CC[C@H](O)CC3)n2n1 [Compound 235] | 1000 to 10000 | ≤ 100
12 | COC[C@H](C)Nc1ncc2c(-c3cnn(CC(=O)N[C@H]4CCOC4)c3)cc([C@H]3CC[C@H](O)CC3)n2n1 [Compound 237] | 100 to 1000 | ≤ 100
13 | COC[C@H](C)Nc1ncc2c(-c3cnn(CC(=O)N(C)C)c3)cc([C@H]3CC[C@H](O)CC3)n2n1 [Compound 238] | 100 to 1000 | ≤ 100
14 | COC[C@H](C)Nc1ncc2c(-c3cnn(CC(=O)N4CCCC4)c3)cc([C@H]3CC[C@H](O)CC3)n2n1 [Compound 239] | 100 to 1000 | ≤ 100
15 | COC[C@H](C)Nc1ncc2c(-c3cnn(CC(=O)N4CCN(C)CC4)c3)cc([C@H]3CC[C@H](O)CC3)n2n1 [Compound 240] | 100 to 1000 | ≤ 100
16 | CNC(=O)Cn1cc(-c2cc([C@H]3CC[C@H](O)CC3)n3nc(N[C@@H](C)COC)ncc23)cn1 [Compound 241] | 100 to 1000 | ≤ 100
17 | COC[C@H](C)Nc1ncc2c(-c3cnn([C@@H]4CCOC4)c3)cc([C@H]3CC[C@H](O)CC3)n2n1 [Compound 242] | 100 to 1000 | ≤ 100

Row | SMILES | IC50 (FLT3) [nM] | IC50 (TYRO3) [nM]
18 | COC[C@H](C)Nc1ncc2c(-c3cnn([C@H]4CCOC4)c3)cc([C@H]3CC[C@H](O)CC3)n2n1 [Compound 243] | 100 to 1000 | ≤ 100
19 | CC(CCF)Nc1ncc2c(-c3ccc(CN4CCOCC4)cc3)cc(C3CCC(O)CC3)n2n1 (stereo not drawn) [Compound 244] | ≤ 100 | ≤ 100
20 | CNC(=O)c1cncc(-c2cc([C@H]3CC[C@H](O)CC3)n3nc(N[C@@H](C)COC)ncc23)c1 [Compound 245] | 1000 to 10000 | ≤ 100
21 | COC[C@H](C)Nc1ncc2c(-c3ccc(C)nc3)cc([C@H]3CC[C@H](O)CC3)n2n1 [Compound 246] | 100 to 1000 | ≤ 100
22 | COC[C@H](C)Nc1ncc2c(-c3cncc(C(N)=O)c3)cc([C@H]3CC[C@H](O)CC3)n2n1 [Compound 247] | 1000 to 10000 | ≤ 100
23 | COC[C@H](C)Nc1ncc2c(-c3cn(C[Si](C)(C)C)nn3)cc([C@H]3CC[C@H](O)CC3)n2n1 [Compound 248] | 1000 to 10000 | ≤ 100
24 | COC[C@H](C)Nc1ncc2c(-c3ccc4c(c3)NC(=O)C4)cc([C@H]3CC[C@H](O)CC3)n2n1 [Compound 249] | 100 to 1000 | ≤ 100
25 | COC[C@H](C)Nc1ncc2c(-c3cn(C)nn3)cc([C@H]3CC[C@H](O)CC3)n2n1 [Compound 250, (trans)-4-(2-(((S)-1-methoxypropan-2-yl)amino)-5-(1-methyl-1H-1,2,3-triazol-4-yl)pyrrolo[2,1-f][1,2,4]triazin-7-yl)cyclohexanol] | 1000 to 10000 | ≤ 100
26 | COC[C@H](C)Nc1ncc2c(-c3ccc4c(c3)CC(=O)N4)cc([C@H]3CC[C@H](O)CC3)n2n1 [Compound 251] | 100 to 1000 | ≤ 100
27 | COC[C@H](C)Nc1ncc2c(-c3ccc4c(c3)CNC4=O)cc([C@H]3CC[C@H](O)CC3)n2n1 [Compound 252] | 100 to 1000 | ≤ 100
28 | COCC(C)Nc1ncc2c(-c3cccc(C)n3)cc(C3CCC(O)CC3)n2n1 (stereo not drawn) [Compound 253] | 1000 to 10000 | ≤ 100
29 | COC[C@H](C)Nc1ncc2c(-c3ccc(N4CCOCC4)nc3)cc([C@H]3CC[C@H](O)CC3)n2n1 [Compound 254] | 100 to 1000 | ≤ 100
30 | CC(CCOC(F)F)Nc1ncc2c(-c3ccc(CN4CCOCC4)cc3)cc(C3CCC(O)CC3)n2n1 (stereo not drawn) [Compound 255] | ≤ 100 | ≤ 100
31 | COC[C@H](C)Nc1ncc2c(-c3ccnc(N4CCN(C)CC4)c3)cc([C@H]3CC[C@H](O)CC3)n2n1 [Compound 256] | 100 to 1000 | ≤ 100
32 | COC[C@H](C)Nc1ncc2c(-c3cc(C)ccn3)cc([C@H]3CC[C@H](O)CC3)n2n1 [Compound 257] | 1000 to 10000 | 100 to 1000
33 | COC[C@H](C)Nc1ncc2c(-c3ccc(C)cn3)cc([C@H]3CC[C@H](O)CC3)n2n1 [Compound 258] | 1000 to 10000 | ≤ 100
